We go through 16 compounds from ChEMBL document CHEMBL5230081, “Battle against Vancomycin-Resistant Bacteria: Recent Developments in Chemical Strategies” (J Med Chem, 2019).

A short description of assay [1]: Binding affinity to D-Ala-D-Ala.
A short description of assay [2]: Binding affinity to D-Ala-D-Lac.
The test system of another assay is Enterococcus faecalis. Kind of assay: Antimicrobial activity against Vancomycin - resistant Enterococcus faecalis assessed as inhibition of bacterial growth. The assay is classed as functional.
The subject of assay [3] is Enterococcus faecium. Kind of assay: Antimicrobial activity against Vancomycin-resistant (Van A) Enterococcus faecium ATCC 51559 assessed as reduction in microbial growth. It counts as functional.
For assay [4], the system named is Pseudomonas aeruginosa. Kind of assay: Antibacterial activity against Pseudomonas aeruginosa ATCC 27853 assessed as bacterial growth inhibition measured after 24 hrs by microbroth dilution method. The assay is classed as functional.
The test system of assay [5] is Pseudomonas aeruginosa. Nature of the assay: Synergistic antibacterial activity against multidrug-resistant Pseudomonas aeruginosa ATCC 27853 assessed as reduction in bacterial viability after 12 hrs in presence of 1/2 MIC of vancomycin. It counts as functional.
The subject of assay [6] is Staphylococcus aureus. Kind of assay: Antibacterial activity against Vancomycin-intermediate Staphylococcus aureus NRS1 assessed as bacterial growth inhibition. The assay is classed as functional.
The test system of assay [7] is Staphylococcus aureus. Kind of assay: Antibacterial activity against Vancomycin-intermediate Staphylococcus aureus 3797 assessed as inhibition in bacterial growth. The assay is classed as functional.
For assay [8], the system named is Enterococcus faecium. Nature of the assay: Antimicrobial activity against Vancomycin-resistant Enterococcus faecium assessed as reduction in microbial growth. It counts as functional.
Assay [9] has as its system Pseudomonas aeruginosa. Nature of the assay: Antibacterial activity against extensively drug resitant Pseudomonas aeruginosa. It counts as functional, organism-based.
Assay [10] deals with Enterococcus faecium. Kind of assay: Antimicrobial activity against Vancomycin-resistant (Van M) Enterococcus faecium ATCC 51559 assessed as reduction in microbial growth. The assay is classed as functional.
The test system of assay [11] is Staphylococcus aureus. Nature of the assay: Antibacterial activity against Vancomycin-intermediate Staphylococcus aureus Mu50 assessed as bacterial growth inhibition. The assay is classed as functional.
Another assay deals with Acinetobacter baumannii. Kind of assay: Antibacterial activity against Acinetobacter baumannii R4942 assessed as reduction in bacterial growth by broth microdilution method. It counts as functional.
Assay [12] relates to Staphylococcus aureus. Nature of the assay: Antimicrobial activity against Vancomycin-resistant Staphylococcus aureus incubated for 20 hrs by broth dilution method. The assay is classed as functional.
The test system of a further assay is Enterobacter cloacae. Nature of the assay: Antibacterial activity against Enterobacter cloacae NDM-1 assessed as reduction in bacterial growth by broth microdilution method. It counts as functional.
The test system of assay [13] is Staphylococcus aureus. Nature of the assay: Antibacterial activity against Vancomycin-resistant Staphylococcus aureus assessed as bacterial growth inhibition measured after 48 hrs by microbroth dilution method. It counts as functional.
Assay [14] relates to Staphylococcus aureus. Kind of assay: Antibacterial activity against Vancomycin-intermediate Staphylococcus aureus assessed as bacterial growth inhibition measured after 24 hrs by microbroth dilution method. The assay is classed as functional.
The mark [15] stands for this setting: Enterococcus faecium, ATCC 51559, read-out: MIC.

Values after ≈ are worked out from the molar mass of the structure shown. Where a SMILES comes first, the peptide text is derived from it. [ ]: non-standard residue; d: D form. ξ: configuration not given here. ξW = NC(Cc1c[nH]c2ccccc12)C(=O)O

`CN[C@H](CC(C)C)C(=O)N[C@H]1C(=O)N[C@@H](CC(N)=O)C(=O)N[C@H]2C(=S)N[C@H]3C(=O)N[C@H](C(=O)N[C@H](C(=O)O)c4cc(O)cc(O)c4-c4cc3ccc4O)[C@H](O)c3ccc(c(Cl)c3)Oc3cc2cc(c3O)Oc2ccc(cc2Cl)[C@H]1O`: the Ka in assay [1] is 1.7 10^2/M; in [2], 1.1 10^1/M.
Consider `CCCCCCCCCCN[C@@]1(C)C[C@H](O[C@H]2[C@H](Oc3c4cc5cc3Oc3ccc(cc3Cl)[C@@H](O)[C@@H](NC(=O)[C@@H](CC(C)C)NC)C(=O)N[C@@H](CC(N)=O)C(=O)N[C@H]5C(=O)N[C@H]3C(=O)N[C@H](C(=O)N[C@H](C(=O)ONCCCNC(=O)[C@H](O)[C@@H](O)[C@H](O[C@@H]5O[C@H](CO)[C@H](O)[C@H](O)[C@H]5O)[C@H](O)CO)c5cc(O)cc(O)c5-c5cc3ccc5O)[C@H](O)c3ccc(c(Cl)c3)O4)O[C@H](CO)[C@@H](O)[C@@H]2O)O[C@@H](C)[C@H]1O`, for which the MIC in the assay on Enterococcus faecalis worked out at 0.7 µM (≈ 1.4 µg/mL); in the assay with Enterococcus faecium [3], 1 µM; with Enterococcus faecium [3] (setting [15]), 0.7 µM. Further, in assay [2], the Ka was 6 10^4/M.
On to `CC(=O)N[C@@H]1[C@H](Oc2c3cc4cc2Oc2ccc(cc2Cl)[C@@H](O[C@@H]2O[C@@H](CO)[C@@H](O)[C@H](O)[C@@H]2NC(C)=O)[C@@H]2NC(=O)[C@H](NC(=O)[C@@H]4NC(=O)[C@H]4NC(=O)[C@@H](Cc5ccc(c(Cl)c5)O3)NC(=O)[C@H](N)c3ccc(O)c(c3)Oc3cc(O)cc4c3)c3ccc(O)c(c3)-c3c(O[C@H]4O[C@H](CO)[C@@H](O)[C@@H](O)[C@@H]4O)cc(O)cc3[C@@H](C(=O)O)NC2=O)O[C@@H](CO)[C@@H](O)[C@@H]1O`, for which the MIC in the assay with Pseudomonas aeruginosa [4] is 256 mg/L (≈ 145 µM). Further, in the assay on Pseudomonas aeruginosa [5], the “fractional inhibitory concentration index (FICI)” value is recorded as below 0.5.
On to `CCCCCCCCCCC(=O)N[C@@H](CCCCN)C(=O)N[C@@H](CCCCN)C(=O)NC(CCCCNC(=O)[C@H]1NC(=O)[C@H]2NC(=O)[C@H](NC(=O)[C@@H]3NC(=O)[C@H](CC(N)=O)NC(=O)[C@H](NC(=O)[C@@H](CC(C)C)NC)[C@H](O)c4ccc(c(Cl)c4)Oc4cc3cc(c4O[C@@H]3O[C@H](CO)[C@@H](O)[C@H](O)[C@H]3O[C@H]3C[C@](C)(N)[C@H](O)[C@H](C)O3)Oc3ccc(cc3Cl)[C@H]2O)c2ccc(O)c(c2)-c2c(O)cc(O)cc21)C(N)=O` (some centres not stated), for which the results for the MIC with Staphylococcus aureus [6], with Staphylococcus aureus [7] and with Enterococcus faecium [3] (setting [15]) were 0.03 mg/L, 0.06 mg/L and 2 mg/L, respectively.
On to `CN[C@H](CC(C)C)C(=O)N[C@H]1C(=O)N[C@@H](CC(N)=O)C(=O)N[C@H]2C(=O)N[C@H]3C(=O)N[C@H](C(=O)N[C@H](C(=O)O)c4cc(O)cc(O)c4-c4cc3ccc4O)[C@H](O)c3ccc(c(Cl)c3)Oc3cc2cc(c3O[C@@H]2O[C@H](CO)[C@@H](O)[C@H](O)[C@H]2O[C@H]2C[C@](C)(NCc3cccc(OCCSSCCOc4cccc(CN[C@@]5(C)C[C@H](O[C@H]6[C@H](Oc7c8cc9cc7Oc7ccc(cc7Cl)[C@@H](O)[C@@H](NC(=O)[C@@H](CC(C)C)NC)C(=O)N[C@@H](CC(N)=O)C(=O)N[C@H]9C(=O)N[C@H]7C(=O)N[C@H](C(=O)N[C@H](C(=O)O)c9cc(O)cc(O)c9-c9cc7ccc9O)[C@H](O)c7ccc(c(Cl)c7)O8)O[C@H](CO)[C@@H](O)[C@@H]6O)O[C@@H](C)[C@H]5O)c4)c3)[C@H](O)[C@H](C)O2)Oc2ccc(cc2Cl)[C@H]1O`, for which the MIC in the assay with Enterococcus faecium [8] (Enterococcus faecium, read-out: MIC) was 1 mg/L; in the assay with Staphylococcus aureus [6] it was 8 mg/L.
As for `CN[C@H](CC(C)C)C(=O)N[C@H]1C(=O)N[C@@H](CC(N)=O)C(=O)N[C@H]2CN[C@H]3C(=O)N[C@H](C(=O)N[C@H](C(=O)O)c4cc(O)cc(O)c4-c4cc3ccc4O)[C@H](O)c3ccc(c(Cl)c3)Oc3cc2cc(c3O)Oc2ccc(cc2Cl)[C@H]1O`, the Ka in assay [1] is 4.8 10^3/M; in [2], 5.2 10^3/M.
In the assay on Pseudomonas aeruginosa [9], POLYMYXIN B gave a minimum inhibitory concentration (MIC) of 2 mg/L.
With `CN[C@H](CC(C)C)C(=O)N[C@H]1C(=O)N[C@@H](CC(N)=O)C(=O)N[C@H]2C(=N)N[C@H]3C(=O)N[C@H](C(=O)N[C@H](C(=O)O)c4cc(O)cc(O)c4-c4cc3ccc4O)[C@H](O)c3ccc(c(Cl)c3)Oc3cc2cc(c3O)Oc2ccc(cc2Cl)[C@H]1O`, the results for the Ka in [1] and in [2] were 7.3 10^4/M and 6.9 10^4/M, respectively.
Take `CN[C@H](CC(C)C)C(=O)N[C@H]1C(=O)N[C@@H](CC(N)=O)C(=O)N[C@H]2C(=O)N[C@H]3C(=O)N[C@H](C(=O)N[C@H](C(=O)O)c4cc(O)c(CNCCO[C@@H]5O[C@H](CO)[C@H](O)[C@H](O)[C@H]5O)c(O)c4-c4cc3ccc4O)[C@H](O)c3ccc(c(Cl)c3)Oc3cc2cc(c3O[C@@H]2O[C@H](CO)[C@@H](O)[C@H](O)[C@H]2O[C@H]2C[C@](C)(NCc3ccc(-c4ccc(C(F)(F)F)cc4)cc3)[C@H](O)[C@H](C)O2)Oc2ccc(cc2Cl)[C@H]1O`: the MIC in the assay with Enterococcus faecium [10] is 2 mg/L; in the assay with Enterococcus faecium [3], at most 0.06 mg/L; in the assay on Enterococcus faecium [3] (setting [15]), 1 mg/L; with Staphylococcus aureus [11], 0.25 mg/L (≈ 0.13 µM).
As for `CCCCCCCC[N+](C)(C)CCCNC(=O)[C@H]1NC(=O)[C@H]2NC(=O)[C@H](NC(=O)[C@@H]3NC(=O)[C@H](CC(N)=O)NC(=O)[C@H](NC(=O)[C@@H](CC(C)C)NC)[C@H](O)c4ccc(c(Cl)c4)Oc4cc3cc(c4O[C@@H]3O[C@H](CO)[C@@H](O)[C@H](O)[C@H]3O[C@H]3C[C@](C)(N)[C@H](O)[C@H](C)O3)Oc3ccc(cc3Cl)[C@H]2O)c2ccc(O)c(c2)-c2c(O)cc(O)cc21`, the MIC with Acinetobacter baumannii is 7 µM; against Staphylococcus aureus [12] it was 0.3 µM; with Staphylococcus aureus [6], 0.4 µM; in the assay with Enterobacter cloacae, above 100 µM; with Enterococcus faecium [3] (setting [15]) it was 12 µM.
In the case of H-IRIKIRIK-OH, the MIC in the assay with Staphylococcus aureus [13] and in the assay with Staphylococcus aureus [14] was 8 mg/L each time.
`CN[C@H](CC(C)C)C(=O)N[C@H]1C(=O)N[C@@H](CC(N)=O)C(=O)N[C@H]2C(=O)N[C@H]3C(=O)N[C@H](C(=O)N[C@H](C(=O)O)c4cc(O)c(CN[C@H]5C(O)O[C@H](CO)[C@H](O)[C@@H]5O)c(O)c4-c4cc3ccc4O)[C@H](O)c3ccc(c(Cl)c3)Oc3cc2cc(c3O[C@@H]2O[C@H](CO)[C@@H](O)[C@H](O)[C@H]2O[C@H]2C[C@](C)(NCc3ccc(-c4ccc(Cl)cc4)cc3)[C@H](O)[C@H](C)O2)Oc2ccc(cc2Cl)[C@H]1O` (some centres not stated): the MIC in the assay on Enterococcus faecium [10] amounted to 4 mg/L; in the assay on Enterococcus faecium [3], 0.25 mg/L; in the assay with Enterococcus faecium [3] (setting [15]) it was 2 mg/L; in the assay with Staphylococcus aureus [11], 0.12 mg/L (≈ 0.0652 µM).
In the case of `CN[C@H](CC(C)C)C(=O)N[C@H]1C(=O)N[C@@H](CC(N)=O)C(=O)N[C@H]2C(=O)N[C@H]3C(=O)N[C@H](C(=O)N[C@H](C(=O)NCCC[N+](C)(C)C)c4cc(O)cc(O)c4-c4cc3ccc4O)[C@H](O)c3ccc(c(Cl)c3)Oc3cc2cc(c3O[C@@H]2O[C@H](CO)[C@@H](O)[C@H](O)[C@H]2O[C@H]2C[C@](C)(NCc3ccc(-c4ccc(Cl)cc4)cc3)[C@H](O)[C@H](C)O2)Oc2ccc(cc2Cl)[C@H]1O`, the MIC with Enterococcus faecium [8] and in the assay on Enterococcus faecium [3] (setting [15]) was 0.01 mg/L each time.
In the case of `CCCCCCCCN(CCCNC(=O)[C@H]1NC(=O)[C@H]2NC(=O)[C@H](NC(=O)[C@@H]3NC(=O)[C@H](CC(N)=O)NC(=O)[C@H](NC(=O)[C@@H](CC(C)C)NC)[C@H](O)c4ccc(c(Cl)c4)Oc4cc3cc(c4O)Oc3ccc(cc3Cl)[C@H]2O)c2ccc(O)c(c2)-c2c(O)cc(O)cc21)CCCNC(=O)[C@H]1NC(=O)[C@H]2NC(=O)[C@H](NC(=O)[C@@H]3NC(=O)[C@H](CC(N)=O)NC(=O)[C@H](NC(=O)[C@@H](CC(C)C)NC)[C@H](O)c4ccc(c(Cl)c4)Oc4cc3cc(c4O)Oc3ccc(cc3Cl)[C@H]2O)c2ccc(O)c(c2)-c2c(O)cc(O)cc21`, the Ka in assay [1] is 1 10^5/M; in [2], 5.7 10^3/M. In addition, the MIC worked out at 0.6 µM with Staphylococcus aureus [7] and 2.5 µM in the assay on Enterococcus faecium [3] (setting [15]).
In the case of `N=C(N)NCCC[C@H](NC(=O)[C@H](CCCNC(=N)N)NC(=O)[C@H](Cc1c[nH]c2ccccc12)NC(=O)[C@H](Cc1c[nH]c2ccccc12)NC(=O)[C@H](CCCNC(=N)N)NC(=O)[C@H](CCCNC(=N)N)NC(=O)[C@H](Cc1c[nH]c2ccccc12)NC(=O)C(Cc1c[nH]c2ccccc12)NC(=O)[C@H](CCCNC(=N)N)NC(=O)[C@H](Cc1c[nH]c2ccccc12)NC(=O)[C@H](Cc1c[nH]c2ccccc12)NC(=O)[C@@H](N)CCCNC(=N)N)C(=O)O` (some centres not stated) (H-RWWR[ξW]WRRWWRR-OH), the results for the MIC in the assay on Staphylococcus aureus [13] and in the assay on Staphylococcus aureus [14] were 1 mg/L (≈ 0.483 µM) and 4 mg/L (≈ 1.93 µM), respectively.
As to `CN[C@H](CC(C)C)C(=O)N[C@H]1C(=O)N[C@@H](CC(N)=O)C(=O)N[C@H]2C(=O)N[C@H]3C(=O)N[C@H](C(=O)N[C@H](C(=O)NC[C@H]4OB(O)c5ccccc54)c4cc(O)cc(O)c4-c4cc3ccc4O)[C@H](O)c3ccc(c(Cl)c3)Oc3cc2cc(c3O[C@@H]2O[C@H](CO)[C@@H](O)[C@H](O)[C@H]2O[C@H]2C[C@](C)(N)[C@H](O)[C@H](C)O2)Oc2ccc(cc2Cl)[C@H]1O`, in the assay on Staphylococcus aureus [7], the MIC worked out at 1 µM.
